This assay has as its system CBA/CaJ mice. The assay is described as follows: Hearing recovery in noise-deafened mice (auditory brainstem responses). It is filed as in vivo, mouse. Conditions: 5, 10, 20, 28.3 and 40 kHz, p<0.05. As to the method: A 17% (w/w) stock solution of poloxamer 407 gel (Sigma-Aldrich) was prepared by slowly adding it to cold 1× phosphate-buffered saline at pH 7.4. This solution is liquid when refrigerated or at room temperature but solidifies at body temperature. The gel was tinted blue with Evans blue dye (50 ppm) for visualization during administration.
A formulation was prepared as described in Example 4 with 527 mM VPA and 2.975 mM CHIR in 17% Poloxamer 407 with 5% DMSO (“VPA/CHIR”). For comparison, a Notch inhibitor, LY411575, was prepared at 4 mM in 17% Poloxamer 407 with 5% DMSO (“LY411575”). Additionally, a vehicle-only control of 17% Poloxamer 407 with 5% DMSO was prepared (“Control”).
CBA/CaJ mice were deafened in a noise chamber by exposure to an 8-16 kHz octave band noise band for 2 hours at 120 dB SPL. 24 hours after noise exposure, their hearing was assessed by measuring auditory brainstem responses (ABRs). The minimum sound pressure level (SPL) required for visual detection of ABR Wave I was determined at 5, 10, 20, 28.3, and 40 kHz. Following ABR measurements, a trans-tympanic injection of a Poloxamer gel drug mixture (described above as “VPA/CHIR”, “LY411575”, or “Control”) was delivered to fill the middle ear cavity. After 30 days, ABR was assessed and the improvement in hearing threshold from 24 hrs to 30 days after noise exposure was determined.

As for `C[C@H](NC(=O)[C@@H](O)c1cc(F)cc(F)c1)C(=O)N[C@@H]1C(=O)N(C)c2ccccc2-c2ccccc21` [LY411575, N-2((2S)-2-(3,5-difluorophenyl)-2-hydroxyethanoyl)-N 1-((7S)-5-methyl-6-oxo-6,7-dihydro-5H-dibenzo[b,d]azepin-7-yI)-1-alaninamide], the hearing recovery result is “significant recovery at 10 kHz, 28.3 KHz, and 40 kHz”.
